In patent US12655116B2, “Substituted isophthalic acid diamides” (Bayer Aktiengesellschaft, priority 2020, dated 2026):

Key:
[1] = tested on: HORMU; experiment: Pre-emergence herbicidal action against HORMU; format: in vivo, Hordeum murinum; details: Hordeum murinum, 504 h; 80 g/ha, pre-emergence
Outline: (§1)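 Greenhouse pots of sandy loam held seeds covered with soil, onto which the compound was applied before emergence. An aqueous suspension or emulsion of WP or EC was used at 600 to 800 l/ha with 0.2% wetting agent. Percent damage was judged visually at 3 weeks.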

[2] = tested on: STEME; experiment: Pre-emergence herbicidal action against STEME; format: in vivo, Stellaria media; details: Stellaria media, 504 h
Outline: as §1

[3] = tested on: ABUTH; experiment: Post-emergence herbicidal action against ABUTH; format: in vivo, Abutilon theophrasti; details: Abutilon theophrasti, 504 h, visual assessment about 3 weeks after treatment vs untreated controls
Outline: (§2)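 Foliar application at one-leaf stage of formulated test compounds, aqueous spray at 600–800 l/ha with 0.2% wetting agent. Greenhouse, optimal conditions, ~3 weeks; damage scored visually in % relative to untreated plants.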

[4] = tested on: ALOMY; experiment: Post-emergence herbicidal action against ALOMY; format: in vivo, Alopecurus myosuroides; details: Alopecurus myosuroides, 504 h, visual assessment about 3 weeks after treatment vs untreated controls
Outline: as §2

[5] = tested on: HORMU; experiment: Post-emergence herbicidal action against HORMU; format: in vivo, Hordeum murinum; details: Hordeum murinum, 504 h
Outline: as §2

[6] = tested on: LOLRI; experiment: Pre-emergence herbicidal action against LOLRI; format: in vivo, Lolium rigidum; details: Lolium rigidum, 504 h, 80 g/ha
Outline: as §1

[7] = tested on: MATIN; experiment: Post-emergence herbicidal action against MATIN; format: in vivo, Matricaria inodora; details: Tripleurospermum inodorum, 504 h
Outline: as §2

[8] = tested on: SETVI; experiment: Pre-emergence herbicidal action against SETVI; format: in vivo, Setaria viridis; details: Setaria viridis, 504 h
Outline: as §1

[9] = tested on: AVEFA; experiment: Pre-emergence herbicidal action against AVEFA; format: in vivo, Avena fatua; details: Avena fatua, 504 h; 80 g/ha, pre-emergence
Outline: as §1

[10] = tested on: VERPE; experiment: Post-emergence herbicidal action against VERPE; format: in vivo, Veronica persica; details: Veronica persica, 504 h, 20 g/ha
Outline: as §2

[11] = tested on: AMARE; experiment: Pre-emergence herbicidal action against AMARE; format: in vivo, Amaranthus retroflexus; details: Amaranthus retroflexus, 504 h, scored visually after 3 weeks vs untreated controls, 100% = plants have died, 0% = like control plants
Outline: as §1

[12] = tested on: VIOTR; experiment: Post-emergence herbicidal action against VIOTR; format: in vivo, Viola tricolor; details: Viola tricolor, 504 h
Outline: as §2

[13] = tested on: ALOMY; experiment: Pre-emergence herbicidal action against ALOMY; format: in vivo, Alopecurus myosuroides; details: Alopecurus myosuroides, 504 h; 80 g/ha, pre-emergence, scored visually after 3 weeks vs untreated controls (100% = plants have died, 0% = like control plants)
Outline: as §1

[14] = tested on: MATIN; experiment: Pre-emergence herbicidal action against MATIN; format: in vivo, Matricaria inodora; details: Tripleurospermum inodorum, 504 h
Outline: as §1

[15] = tested on: VERPE; experiment: Pre-emergence herbicidal action against VERPE; format: in vivo, Veronica persica; details: Veronica persica, 504 h, dosage 80 g/ha
Outline: as §1

[16] = tested on: ECHCG; experiment: Post-emergence herbicidal action against ECHCG; format: in vivo, Echinochloa crus-galli; details: Echinochloa crus-galli, 504 h
Outline: as §2

[17] = tested on: ABUTH; experiment: Pre-emergence herbicidal action against ABUTH; format: in vivo, Abutilon theophrasti; details: Abutilon theophrasti, 504 h
Outline: as §1

[18] = tested on: POLCO; experiment: Pre-emergence herbicidal action against POLCO; format: in vivo, Polygonum convolvulus; details: Fallopia convolvulus, 504 h, dosage 80 g/ha
Outline: as §1

[19] = tested on: PHBPU; experiment: Post-emergence herbicidal action against PHBPU; format: in vivo, Pharbitis purpurea; details: Ipomoea purpurea, 504 h, dosage 20 g/ha
Outline: as §2

[20] = tested on: AVEFA; experiment: Post-emergence herbicidal action against AVEFA; format: in vivo, Avena fatua; details: Avena fatua, 504 h, 20 g/ha, visual assessment about 3 weeks after treatment, 100% = plants have died, 0% = like control plants
Outline: as §2

[21] = tested on: STEME; experiment: Post-emergence herbicidal action against STEME; format: in vivo, Stellaria media; details: Stellaria media, 504 h
Outline: as §2

[22] = tested on: SETVI; experiment: Post-emergence herbicidal action against SETVI; format: in vivo, Setaria viridis; details: Setaria viridis, 504 h
Outline: as §2

CCc1c(C(=O)Nc2nnnn2C)ccc(C(F)(F)F)c1C(=O)NC1CC1 [Example 1-273]
90%: pest or weed control at 5 g/ha ([3]; dosage 5 g/ha) | pest or weed control at 20 g/ha ([3]; dosage 20 g/ha) | pest or weed control at 20 g/ha ([5]; dosage 20 g/ha) | pest or weed control at 20 g/ha [10] | pest or weed control at 80 g/ha [13] | pest or weed control at 80 g/ha [15] | pest or weed control at 20 g/ha ([16]; dosage 20 g/ha) | pest or weed control at 80 g/ha [18] | pest or weed control at 20 g/ha [20] | pest or weed control at 5 g/ha ([21]; dosage 5 g/ha)
100%: pest or weed control at 20 g/ha ([2]; dosage 20 g/ha) | pest or weed control at 80 g/ha ([2]; dosage 80 g/ha) | pest or weed control at 20 g/ha ([4]; dosage 20 g/ha) | pest or weed control at 5 g/ha ([7]; dosage 5 g/ha) | pest or weed control at 20 g/ha ([7]; dosage 20 g/ha) | pest or weed control at 20 g/ha ([8]; dosage 20 g/ha) | pest or weed control at 80 g/ha ([8]; dosage 80 g/ha) | pest or weed control at 80 g/ha [9] | pest or weed control at 20 g/ha ([11]; 20 g/ha) | pest or weed control at 80 g/ha ([11]; 80 g/ha) | pest or weed control at 5 g/ha ([12]; 5 g/ha) | pest or weed control at 20 g/ha ([12]; 20 g/ha) | pest or weed control at 20 g/ha ([14]; dosage 20 g/ha) | pest or weed control at 80 g/ha ([14]; dosage 80 g/ha) | pest or weed control at 80 g/ha ([17]; 80 g/ha, scored visually after 3 weeks vs untreated controls (100% = plants have died, 0% = like control plants)) | pest or weed control at 20 g/ha ([17]; dosage 20 g/ha, scored visually after 3 weeks vs untreated controls, 100% = plants have died, 0% = like control plants, read-out: Pre-emergence action against ABUTH (herbicidal activity in percent)) | pest or weed control at 20 g/ha ([21]; 20 g/ha) | pest or weed control at 20 g/ha ([22]; dosage 20 g/ha)
80%: pest or weed control at 80 g/ha [1] | pest or weed control at 5 g/ha ([4]; dosage 5 g/ha) | pest or weed control at 5 g/ha ([5]; dosage 5 g/ha) | pest or weed control at 80 g/ha [6] | pest or weed control at 5 g/ha ([16]; dosage 5 g/ha) | pest or weed control at 20 g/ha [19] | pest or weed control at 5 g/ha ([22]; dosage 5 g/ha)
